From patent US11634425B2, “Pharmaceutical compounds” (priority 2019, dated 2023) come the findings set out here.

Like-named read-outs stand apart in the source and are kept apart here.

One data set relates to RSV A2. Briefly: RSV plaque reduction assay. The data set is classed as cell-based, respiratory syncytial virus (RSV). The conditions noted are these: mean of at least two experiments. The method, boiled down: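 EC50 is the 50% reduction in immunostained plaque count versus virus-control wells, interpolated from variable-slope 4-parameter fits and averaged over at least two runs. Hep-G2 cells were infected with 100 PFU/well RSV A2 premixed with compound, with the inoculum removed after 2 h. Incubation continued at 37 °C for 2 days under a CMC overlay with compound.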

The nature of the next data set: Cell cytotoxicity (CC50). The data set is classed as cell-based. The conditions noted are these: human; mean of at least two experiments. Put shortly: (§1)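 Values are means of ≥2 independent runs, rounded to whole units, from 4-parameter variable-slope curve fits. Toxicity measured in Hep-G2 cells run alongside RSV plaque-reduction assays.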
Data set [1] is described as follows: in vitro. The data set is classed as in vitro ADME. The conditions noted are these: microsomes, pH 7.4, 1 μM compound, 0.5 mg/mL protein, read-out: Liver Microsomal Stability t1/2. Put shortly:
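Pooled liver microsomes (0.5 mg/mL protein) in 0.1 M phosphate pH 7.4 with 1 μM compound and 1 mM NADPH at 37° C., sampled at 0–45 min; minus-NADPH control at 45 min. Acetonitrile quench, LC-MS/MS; t1/2 and CLint from ln peak-area ratio vs time slope.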

Data set [2] can be described thus: in vitro. The data set is classed as in vitro ADME. The conditions noted are these: hepatocytes, 3 μM compound, read-out: Liver Hepatocyte Stability t1/2. The protocol:
Compounds were subjected to the following assays to investigate liver microsomal stability and hepatocyte stability.
Hepatocyte Incubation: Experimental Procedure
Cryopreserved pooled hepatocytes were purchased from a reputable commercial supplier and stored in liquid nitrogen prior to use. Williams E media supplemented with 2 mM L-glutamine and 25 mM HEPES and test compound (final substrate concentration 3 μM; final DMSO concentration 0.25%) are pre-incubated at 37° C. prior to the addition of a suspension of cryopreserved hepatocytes (final cell density 0.5×10^6 viable cells/mL in Williams E media supplemented with 2 mM L-glutamine and 25 mM HEPES) to initiate the reaction. The final incubation volume is 500 μL. Two control compounds were included with each species, alongside appropriate vehicle control. The reactions are stopped by transferring 50 μL of incubate to 100 μL acetonitrile containing internal standard at the appropriate time points. Samples were removed at 6 time points (0, 5, 15, 30, 45 and 60 min) over the course of a 60 min experiment. The termination plates are centrifuged at 2500 rpm at 4° C. for 30 min to precipitate the protein. Following protein precipitation, the sample supernatants were combined in cassettes of up to 4 compounds and analysed using generic LC-MS/MS conditions. From a plot of ln peak area ratio (compound peak area/internal standard peak area) against time, the gradient of the line is determined. Subsequently, half-life (t1/2) and intrinsic clearance (CLint) were calculated.

A further data set is described as follows: in vivo. Format: in vivo, rat (Sprague Dawley). To be noted: male SD rat; for Vd / clearance / Cmax / half-life / AUC(0-t): Sprague Dawley, in vivo; for Cmax / C 8 h: IV 1 mg/kg / PO 10 mg/kg study; for AUC(0-t): read-out: PO AUClast. The procedure:
The pharmacokinetics of compounds were studied in vivo in rats at doses of 1 mg/kg (IV) and 10 mg/kg (PO).
Male rats [Sprague Dawley (SD)] surgically prepared with a jugular vein cannula were treated with experimental compounds via intravenous administration (IV; n=3; 1 mg/kg) or oral administration (PO; n=3; 10 mg/kg). Compounds were formulated as a solution in 40:60 dimethylacetamide:saline (IV administration) and a solution of 10% DMSO, 20% cremaphor in water (70%) (PO administration). […] Serial blood samples were collected via the cannula at 0.02, 0.08, 0.25, 0.5, 1, 2, 4, 6, 8 and 24 h post IV dosing of compound, and at 0.08, 0.25, 0.5, 1, 2, 4, 6, 8 and 24 h post oral dosing of compound, and plasma was prepared by centrifugation and stored immediately at −80° C. Samples were subsequently thawed, prepared for analysis by protein precipitation with acetonitrile, and analysed by tandem LCMS using electrospray ionisation using a matrix-matched calibration curve. PK parameters were calculated from the resulting data.

Another data set relates to Hep-G2 cells. Briefly: Cell cytotoxicity (CC50). The data set is classed as cell-based. To be noted: mean of at least two experiments. Put shortly: as §1
Where [3] appears, read: human respiratory syncytial virus, HepG2, Hep-G2 cells.
The mark [4] stands for this setting: IV 1 mg/kg, read-out: IV t1/2 (converted).
Where [5] appears, read: PO 10 mg/kg, read-out: PO t1/2 (converted).

In the data set with RSV A2 (setting [3]), `O=C(N[C@H]1N=C(c2ccccc2)c2cccc(F)c2NC1=O)c1c(-c2cncc(Cl)c2)nn2cccnc12` [Example 28, 2-(5-Chloropyridin-3-yl)-N-[(3S)-9-fluoro-2-oxo-5-phenyl-1,3-dihydro-1,4-benzodiazepin-3-yl]pyrazolo[1,5-a]pyrimidine-3-carboxamide] registered an EC50 of 41 nM. For the same compound, in “Cell cytotoxicity (CC50)”, the CC50 is over 25 µM. The half-life at 1 μM came to 257 min in the data set “in vitro [1]” (dog), 852 min in “in vitro [1]” (human) and 2680 min in the data set “in vitro [1]” (rat). Moreover, the half-life at 3 μM is 240 min in “in vitro [2]” (dog), 194 min in “in vitro [2]” (human) and over 186 min in the data set “in vitro [2]” (rat). The compound also had a Vd in “in vivo” (IV 1 mg/kg) of 1.8 L/kg. Besides, in the data set “in vivo” (IV 1 mg/kg), the clearance was found to be 7.8 mL/min/kg. Further, in “in vivo”, the Cmax was found to be 785 ng/mL. The half-life in the data set “in vivo” (setting [4]) was 186 min; in the data set “in vivo” (setting [5]) it was 324 min. Further, the AUC(0-t) in “in vivo” (PO 10 mg/kg) was found to be 11100 ng·h/mL. Besides, in the data set “in vivo”, the “C 8 h” value came out at 629 ng/mL. The compound further returned a F in the data set “in vivo” (IV 1 mg/kg, PO 10 mg/kg) of 54%.

For the compound `O=C(N[C@H]1N=C(c2ccccc2)c2cccc(F)c2NC1=O)c1c(-c2ccccc2F)nc2cccnn12` [Example 18, N-[(3S)-9-fluoro-2-oxo-5-phenyl-1,3-dihydro-1,4-benzodiazepin-3-yl]-2-(2-fluorophenyl)imidazo[1,2-b]pyridazine-3-carboxamide], the EC50 in the data set with RSV A2 (setting [3]) is 28 nM. The compound also yielded a CC50 in the data set “Cell cytotoxicity (CC50)” of over 25 µM. The half-life at 1 μM in the data set “in vitro [1]” (dog) amounted to 414 min; in “in vitro [1]” (human) it was 741 min; in the data set “in vitro [1]” (rat), 50.3 min. The values for the half-life at 3 μM in the data set “in vitro [2]” (dog), in the data set “in vitro [2]” (human) and in “in vitro [2]” (rat) were 127 min, 694 min and 66.4 min, respectively.

On to `O=C(N[C@H]1N=C(c2ccccc2)c2cccc(F)c2NC1=O)c1c(-c2ccccc2F)nn2cccnc12` [Example 3, N-[(3S)-9-fluoro-2-oxo-5-phenyl-1,3-dihydro-1,4-benzodiazepin-3-yl]-2-(2-fluorophenyl)pyrazolo[1,5-a]pyrimidine-3-carboxamide], for which the EC50 with RSV A2 (setting [3]) worked out at 90 nM. In “Cell cytotoxicity (CC50)”, the CC50 was over 25 µM. Further, the half-life at 1 μM in the data set “in vitro [1]” (dog) was over 140 min; in “in vitro [1]” (human) it was 330 min; in the data set “in vitro [1]” (rat) it was over 140 min. Besides, the half-life at 3 μM in the data set “in vitro [2]” (dog) was over 186 min; in “in vitro [2]” (human) it was 257 min; in “in vitro [2]” (rat) it was 81.7 min.

With `Cc1ccc2nc(-c3ccccc3)c(C(=O)N[C@H]3N=C(c4ccccc4)c4cccc(F)c4NC3=O)n2n1` [Example 93, N-[(3S)-9-Fluoro-2-oxo-5-phenyl-1,3-dihydro-1,4-benzodiazepin-3-yl]-6-methyl-2-phenylimidazo[1,2-b]pyridazine-3-carboxamide], the EC50 in the data set with RSV A2 (setting [3]) is 33 nM. The same compound came in with a half-maximal cytotoxic concentration (CC50) in the data set “Cell cytotoxicity (CC50)” of over 25 µM. Besides, the half-life at 1 μM in the data set “in vitro [1]” (dog) was 1420 min; in “in vitro [1]” (human), 2090 min; in “in vitro [1]” (rat) it was 41.1 min. Also, the half-life at 3 μM turned out to be 445 min in the data set “in vitro [2]” (dog), 294 min in “in vitro [2]” (human) and 71.5 min in “in vitro [2]” (rat).

Compound `Cc1ccn2nc(-c3ccccc3F)c(C(=O)N[C@H]3N=C(c4ccccc4)c4cccc(F)c4NC3=O)c2n1` [Example 23, N-[(3S)-9-Fluoro-2-oxo-5-phenyl-1,3-dihydro-1,4-benzodiazepin-3-yl]-2-(2-fluorophenyl)-5-methylpyrazolo[1,5-a]pyrimidine-3-carboxamide] displayed an EC50 with RSV A2 (setting [3]) of 21 nM. In addition, in the data set “Cell cytotoxicity (CC50)”, the CC50 was over 25 µM. Also, the half-life at 1 μM turned out to be 902 min in “in vitro [1]” (dog), 399 min in “in vitro [1]” (human) and 33.3 min in “in vitro [1]” (rat). Moreover, the half-life at 3 μM was 214 min in “in vitro [2]” (dog), 519 min in the data set “in vitro [2]” (human) and 70.9 min in the data set “in vitro [2]” (rat).

For “2-[2-Methyl-6-(propan-2-ylamino)pyridin-3-yl]-N-[(3S)-2-oxo-5-phenyl-1,3-dihydro-1,4-benzodiazepin-3-yl]pyrazolo[1,5-a]pyrimidine-3-carboxamide [Example 60]”, in the data set with RSV A2 (Hep-G2 cells), the EC50 amounted to 41 nM. In the data set with Hep-G2 cells, this compound displayed a CC50 of over 25 µM.

Compound `COc1ccc2nc(-c3ccncc3F)c(C(=O)N[C@H]3N=C(c4ccccc4)c4cccc(F)c4NC3=O)n2n1` [Example 119, N-[(3S)-9-fluoro-2-oxo-5-phenyl-1,3-dihydro-1,4-benzodiazepin-3-yl]-2-(3-fluoropyridin-4-yl)-6-methoxyimidazo[1,2-b]pyridazine-3-carboxamide] yielded a concentration giving a half-maximal response (EC50) with RSV A2 (setting [3]) of 28 nM. Further, the CC50 in the data set “Cell cytotoxicity (CC50)” is over 25 µM. Further, the results for the half-life at 1 μM in “in vitro [1]” (dog), in “in vitro [1]” (human) and in “in vitro [1]” (rat) were 444 min, 161 min and 51.8 min, respectively. Besides, the half-life at 3 μM in “in vitro [2]” (dog) was 295 min; in “in vitro [2]” (human) it was over 186 min; in the data set “in vitro [2]” (rat), 118 min.

For the compound `CCc1ccc(-c2nn3cccnc3c2C(=O)N[C@H]2N=C(c3ccccc3)c3cccc(F)c3NC2=O)c(C)n1` [Example 57, 2-(6-Ethyl-2-methylpyridin-3-yl)-N-[(3S)-9-fluoro-2-oxo-5-phenyl-2,3-dihydro-1H-1,4-benzodiazepin-3-yl]pyrazolo[1,5-a]pyrimidine-3-carboxamide], in the data set on RSV A2 (setting [3]), a half-maximal effect (EC50) was put at 56 nM. For the same compound, in “Cell cytotoxicity (CC50)”, the CC50 was over 25 µM. Besides, the results for the half-life at 1 μM in “in vitro [1]” (dog), in “in vitro [1]” (human) and in “in vitro [1]” (rat) were 82.6 min, 101 min and 42.9 min, respectively. Besides, the values for the half-life at 3 μM in the data set “in vitro [2]” (dog), in “in vitro [2]” (human) and in “in vitro [2]” (rat) were 2600 min, over 186 min and 47.1 min, respectively. Further, the Vd in the data set “in vivo” (IV 1 mg/kg) amounted to 0.6 L/kg. In “in vivo” (IV 1 mg/kg), the clearance came to 19.2 mL/min/kg. In the data set “in vivo”, the Cmax was 912 ng/mL. Further, the half-life is 84 min in the data set “in vivo” (setting [4]) and 156 min in “in vivo” (setting [5]). Besides, the AUC(0-t) in “in vivo” (PO 10 mg/kg) came to 3660 ng·h/mL. The “C 8 h” value in “in vivo” turned out to be 142 ng/mL. Also, the F in the data set “in vivo” (IV 1 mg/kg, PO 10 mg/kg) came to 48%.

For `Cc1ccc2nc(-c3ccccc3F)c(C(=O)N[C@H]3N=C(c4ccccc4)c4cccc(F)c4NC3=O)n2n1` [Example 19, N-[(3S)-9-fluoro-2-oxo-5-phenyl-1,3-dihydro-1,4-benzodiazepin-3-yl]-2-(2-fluorophenyl)-6-methylimidazo[1,2-b]pyridazine-3-carboxamide], in the data set with RSV A2 (setting [3]), a half-maximal response (EC50) required 31 nM. Moreover, the CC50 in the data set “Cell cytotoxicity (CC50)” was over 25 µM. In addition, the half-life at 1 μM was over 140 min in the data set “in vitro [1]” (dog), over 140 min in “in vitro [1]” (human) and 28.6 min in the data set “in vitro [1]” (rat). Besides, the values for the half-life at 3 μM in “in vitro [2]” (dog), in “in vitro [2]” (human) and in “in vitro [2]” (rat) were over 186 min, 121 min and 95.8 min, respectively.

Regarding `O=C(N[C@H]1N=C(c2ccccc2)c2ccccc2NC1=O)c1c(-c2ccc(F)cc2F)nc2cccnn12` [Example 88, 2-(2,4-Difluorophenyl)-N-[(3S)-2-oxo-5-phenyl-1,3-dihydro-1,4-benzodiazepin-3-yl]imidazo[1,2-b]pyridazine-3-carboxamide], the EC50 in the data set on RSV A2 (setting [3]) was found to be 20 nM. Also, in the data set “Cell cytotoxicity (CC50)”, the CC50 is over 25 µM. The half-life at 1 μM in the data set “in vitro [1]” (dog) was 76.4 min; in “in vitro [1]” (human), over 140 min; in the data set “in vitro [1]” (rat), 202 min.
